#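 Here, GI50 denotes the concentration required for 50% inhibition of growth. TGI denotes the concentration required for complete inhibition of growth.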
# Legend:
# Experiment in all cases: NCI anticancer screen, dose series, 384-well format
# [1] = system: HOP-92 NSCLC
# [2] = system: HCC-2998 colon
# [3] = system: NCI-H522 lung
# [4] = system: SW-620 colon
# [5] = system: LOX IMVI melanoma
# [6] = system: SK-MEL-5 melanoma
# [7] = system: OVCAR-3 ovarian
# [8] = system: HOP-62 NSCLC
# [9] = system: NCI-H460 NSCLC
# [10] = system: HCT-15 colon
# [11] = system: COLO 205 colon
# [12] = system: SN12C renal
# [13] = system: CCRF-CEM leukemia
# [14] = system: MDA-MB-435 melanoma
# [15] = system: EKVX NSCLC
# [16] = system: 786-0 renal
# [17] = system: RPMI-8226 leukemia
# [18] = system: SK-MEL-28 melanoma
# [19] = system: RXF 393 renal
# [20] = system: UACC-257 melanoma
# [21] = system: NCI-H226 lung
# [22] = system: IGROV1 ovarian
# [23] = system: TK-10 renal
# [24] = system: PC-3 prostate
# [25] = system: SF-268 CNS
# [26] = system: DU-145 prostate
# [27] = system: ACHN renal
# [28] = system: SNB-19 CNS
# [29] = system: K-562 leukemia
# [30] = system: HT29 colon
# [31] = system: KM12 colon
# [32] = system: U251 glioblastoma
# [33] = system: SNB-75 CNS
# [34] = system: OVCAR-5 ovarian
# [35] = system: UO-31 renal
# [36] = system: MDA-MB-468 breast
# [37] = system: HS 578T breast
# [38] = system: MDA-MB-231 breast
# [39] = system: HL-60(TB) leukemia
# [40] = system: M14 melanoma
# [41] = system: SF-295 CNS
# [42] = system: MOLT-4 leukemia
# [43] = system: T-47D breast
# [44] = system: OVCAR-4 ovarian
# [45] = system: OVCAR-8 ovarian
# [46] = system: UACC-62 melanoma
# [47] = system: BT-549 breast
# [48] = system: NCI-H23 lung
# [49] = system: NCI/ADR-RES ovarian
# [50] = system: SK-OV-3 ovarian
# [51] = system: MCF7 breast
# [52] = system: CAKI-1 renal
# [53] = system: A498 renal
# [54] = system: SF-539 CNS
# [55] = system: NCI-H322M lung
# [56] = system: HCT-116 colon
# [57] = system: A549 NSCLC
# [58] = system: SR leukemia
structure (smiles),measurement,setting,value
C[C@H](O)C(=O)N1CCC(CCn2c(Sc3cc4c(cc3Br)OCO4)nc3c(N)ncnc32)CC1,GI50,[1],624 nM
same,TGI,[1],2370 nM
same,GI50,[2],127 nM
same,TGI,[2],478 nM
same,GI50,[3],203 nM
same,TGI,[3],410 nM
same,GI50,[4],303 nM
same,TGI,[4],2550 nM
same,GI50,[5],327 nM
same,TGI,[5],1070 nM
same,GI50,[6],335 nM
same,TGI,[6],19600 nM
same,GI50,[7],405 nM
same,TGI,[7],3270 nM
same,GI50,[8],582 nM
same,TGI,[8],27800 nM
same,GI50,[9],275 nM
same,TGI,[9],745 nM
same,GI50,[10],757 nM
same,TGI,[10],15600 nM
same,GI50,[11],291 nM
same,TGI,[11],1840 nM
same,GI50,[12],333 nM
same,TGI,[12],1840 nM
same,GI50,[13],229 nM
same,TGI,[13],783 nM
same,GI50,[14],1270 nM
same,TGI,[14],> 100000 nM
same,GI50,[15],649 nM
same,TGI,[15],25100 nM
same,GI50,[16],607 nM
same,TGI,[16],> 100000 nM
same,GI50,[17],472 nM
same,TGI,[17],2530 nM
same,GI50,[18],589 nM
same,TGI,[18],31200 nM
same,GI50,[19],346 nM
same,TGI,[19],26000 nM
same,GI50,[20],4380 nM
same,TGI,[20],31000 nM
same,GI50,[21],568 nM
same,TGI,[21],7660 nM
same,GI50,[22],299 nM
same,TGI,[22],1740 nM
same,GI50,[23],522 nM
same,TGI,[23],23300 nM
same,GI50,[24],655 nM
same,TGI,[24],4010 nM
same,GI50,[25],174 nM
same,TGI,[25],494 nM
same,GI50,[26],420 nM
same,TGI,[26],13800 nM
same,GI50,[27],574 nM
same,TGI,[27],> 100000 nM
same,GI50,[28],694 nM
same,TGI,[28],> 100000 nM
same,GI50,[29],271 nM
same,TGI,[29],4700 nM
same,GI50,[30],337 nM
same,TGI,[30],20300 nM
same,GI50,[31],318 nM
same,TGI,[31],10900 nM
same,GI50,[32],395 nM
same,TGI,[32],1450 nM
same,GI50,[33],1490 nM
same,TGI,[33],7220 nM
same,GI50,[34],723 nM
same,TGI,[34],> 100000 nM
same,GI50,[35],680 nM
same,TGI,[35],58800 nM
same,GI50,[36],294 nM
same,TGI,[36],743 nM
same,GI50,[37],327 nM
same,TGI,[37],2220 nM
same,GI50,[38],537 nM
same,TGI,[38],7360 nM
same,GI50,[39],248 nM
same,TGI,[39],523 nM
same,GI50,[40],361 nM
same,TGI,[40],11800 nM
same,GI50,[41],433 nM
same,TGI,[41],1700 nM
same,GI50,[42],122 nM
same,TGI,[42],268 nM
same,GI50,[43],344 nM
same,TGI,[43],1500 nM
same,GI50,[44],17300 nM
same,TGI,[44],> 100000 nM
same,GI50,[45],272 nM
same,TGI,[45],707 nM
same,GI50,[46],534 nM
same,TGI,[46],3070 nM
same,GI50,[47],410 nM
same,TGI,[47],2820 nM
same,GI50,[48],214 nM
same,TGI,[48],640 nM
same,GI50,[49],9820 nM
same,TGI,[49],35500 nM
same,GI50,[50],827 nM
same,TGI,[50],76600 nM
same,GI50,[51],286 nM
same,TGI,[51],2810 nM
same,GI50,[52],657 nM
same,TGI,[52],88800 nM
same,GI50,[53],901 nM
same,TGI,[53],> 100000 nM
same,GI50,[54],223 nM
same,TGI,[54],442 nM
same,GI50,[55],593 nM
same,TGI,[55],58100 nM
same,GI50,[56],518 nM
same,TGI,[56],> 100000 nM
same,GI50,[57],318 nM
same,TGI,[57],> 100000 nM
Cc1ncc(CCCN(C)C)cc1Nc1ncc2c(n1)-c1ccc(C(F)(F)F)cc1NC(=S)C2,GI50,[1],< 10 nM
same,TGI,[1],6280 nM
same,GI50,[2],< 10 nM
same,TGI,[2],13.9 nM
same,GI50,[3],< 10 nM
same,TGI,[3],< 10 nM
same,GI50,[4],< 10 nM
same,TGI,[4],14.8 nM
same,GI50,[58],< 10 nM
same,TGI,[58],< 10 nM
same,GI50,[6],< 10 nM
same,TGI,[6],12.7 nM
same,GI50,[7],< 10 nM
same,TGI,[7],< 10 nM
same,GI50,[8],< 10 nM
same,TGI,[8],37 nM
same,GI50,[9],< 10 nM
same,TGI,[9],< 10 nM
same,GI50,[10],< 10 nM
same,TGI,[10],35.1 nM
same,GI50,[12],138 nM
same,TGI,[12],3470 nM
same,GI50,[13],< 10 nM
same,TGI,[13],< 10 nM
same,GI50,[14],< 10 nM
same,TGI,[14],< 10 nM
same,GI50,[15],11.6 nM
same,TGI,[15],17800 nM
same,GI50,[16],< 10 nM
same,TGI,[16],305 nM
same,GI50,[17],< 10 nM
same,TGI,[17],< 10 nM
same,GI50,[21],512 nM
same,TGI,[21],6710 nM
same,GI50,[22],< 10 nM
same,TGI,[22],16100 nM
same,GI50,[23],1730 nM
same,TGI,[23],19700 nM
same,GI50,[24],< 10 nM
same,TGI,[24],14300 nM
same,GI50,[25],< 10 nM
same,TGI,[25],1990 nM
same,GI50,[27],44.4 nM
same,TGI,[27],15300 nM
same,GI50,[28],< 10 nM
same,TGI,[28],641 nM
same,GI50,[29],< 10 nM
same,TGI,[29],< 10 nM
same,GI50,[30],< 10 nM
same,TGI,[30],< 10 nM
same,GI50,[32],< 10 nM
same,TGI,[32],11200 nM
same,GI50,[33],< 10 nM
same,TGI,[33],15.2 nM
same,GI50,[34],< 10 nM
same,TGI,[34],173 nM
same,GI50,[35],99 nM
same,TGI,[35],19800 nM
same,GI50,[36],< 10 nM
same,TGI,[36],< 10 nM
same,GI50,[37],< 10 nM
same,TGI,[37],21.5 nM
same,GI50,[38],< 10 nM
same,TGI,[38],12200 nM
same,GI50,[39],< 10 nM
same,TGI,[39],< 10 nM
same,GI50,[41],< 10 nM
same,TGI,[41],17.1 nM
same,GI50,[42],< 10 nM
same,TGI,[42],< 10 nM
same,GI50,[43],37.5 nM
same,TGI,[43],15100 nM
same,GI50,[44],< 10 nM
same,TGI,[44],13200 nM
same,GI50,[45],< 10 nM
same,TGI,[45],< 10 nM
same,GI50,[47],< 10 nM
same,TGI,[47],37.1 nM
same,GI50,[48],< 10 nM
same,TGI,[48],< 10 nM
same,GI50,[49],31.4 nM
same,TGI,[49],179 nM
same,GI50,[50],< 10 nM
same,TGI,[50],1690 nM
same,GI50,[51],< 10 nM
same,TGI,[51],2270 nM
same,GI50,[52],59.2 nM
same,TGI,[52],12900 nM
same,GI50,[53],< 10 nM
same,TGI,[53],12700 nM
same,GI50,[54],< 10 nM
same,TGI,[54],117 nM
same,GI50,[55],4460 nM
same,TGI,[55],19800 nM
same,GI50,[57],< 10 nM
same,TGI,[57],170 nM
